The values that follow come from US4925867A, “Hydrocarbon substituted pyrrolidinones, intermediates therefor, and anti-convulsant use thereof” (Merck Sharp & Dohme Ltd., priority 1988, dated 1990).

Each structure is given as a SMILES string.

In one assay the test system is NMDA receptors. As to the kind of experiment: Cortical slice studies: antagonism of responses to NMDA in rat cortical slice. Particulars: from righthand shift in the NMDA concentration-response curve, read-out: apparent equilibrium constant (Kb). In kind it is cell-based. As to the method:
The compounds useful in this invention potently and selectively block responses to NMDA in a brain slice from rat cortex, inhibit glycine binding to the strychnine-insensitive site present on the NMDA receptor, and block the potentiation of NMDA responses by glycine in cultured cortical neurones.
The effects of compounds of the invention on responses to NMDA were assessed using the rat cortical slice as described by Wong et al., Proc. Natl. Acad. Sci. USA, 1986, 83, 7104. The apparent equilibrium constant (Kb) was calculated from the righthand shift in the NMDA concentration-response curve produced by the compound under test.

The subject of the next assay is NMDA-induced excitation. The note with it: Evans et al., Brain Research, 1978, 148, 536-542; cited from earlier work.

Regarding `C[C@H]1CN(O)C(=O)[C@H]1N` (relative stereo) [Example 1, cis-3-Amino-1-hydroxy-4-methylpyrrolidin-2-one], in the assay on NMDA receptors, the Kb – broadly, the equilibrium dissociation constant of an antagonist, usually derived from a functional assay – was below 100 µM. `C[C@@H]1CN(O)C(=O)[C@@H]1N` [Example 2, (3R,4R)-3-Amino-1-hydroxy-4-methylpyrrolidin-2-one]: the Kb with NMDA receptors is below 100 µM. `NC1CCN(O)C1=O` (stereo not drawn) [HA-966, 3-amino-1-hydroxypyrrolidin-2-one]: in the assay with NMDA-induced excitation, the “antagonism of NMDA-induced excitation (in words)” value is “able to antagonise selectively NMDA-induced excitation”.
